In ChEMBL document CHEMBL1151124, “Photodiode Array Detection and Structures of Griseolic Acid Analogues from Culture Broth” (J Nat Prod, 1988):
Activity calls are given as the source filed them. The rule behind the calls is not given here.

Assay: Inhibition of cAMP-specific 3',5'-cyclic phosphodiesterase
For Nc1ncnc2c1ncn2[C@@H]1O[C@@H]2C[C@](CC(=O)O)(C(=O)O)O[C@H]2[C@H]1O, the Activity was “Active”.
In the case of Nc1ncnc2c1ncn2[C@@H]1OC2=C[C@](CC(=O)O)(C(=O)O)O[C@H]2[C@H]1O, the Activity is reported as “Active”.
For Nc1ncnc2c1ncn2[C@@H]1O[C@H](C[C@@H](CC(=O)O)C(=O)O)[C@@H](O)[C@H]1O, the Activity was “inactive”.
In the case of Nc1ncnc2c1ncn2[C@@H]1OC2=C[C@@](C(=O)O)(C(O)C(=O)O)O[C@H]2[C@H]1O (some centres undefined), the Activity is reported as “Active”.
